US10695562B2, “Interventional drug delivery system and associated methods” (The University of North Carolina at Chapel Hill, priority 2009, dated 2020)

Tests used:
[1] = Gemcitabine transport in orthotopic xenograft tumors, transport testing system, HPLC; format: in vitro ADME; details: constant current 20 mA, 20 minutes, tumors 1.25 to 1.5 cm
Description: To assess and optimize the electrical transport parameters in tissue, a transport testing system was built (see FIG. 32A). The transport of gemcitabine, the current standard-of-care therapy for pancreatic cancer, was evaluated in orthotopic xenograft tumors using this transport testing system (see FIG. 32B). The tumors chosen for the studies were 1.25 to 1.5 cm in diameter because of compatibility with the size of the transport cell. The gemcitabine was used according to the current clinical formulation (Gemzar® to Eli Lilly and Company), at a concentration relevant to that administered in the clinic. For three tumors, a constant current of 20 mA was applied for 20 minutes, and the amount of gemcitabine was evaluated using a high-performance liquid chromatography (HPLC) analysis method. For three additional tumors, no current was applied, which allowed for passive diffusion of the gemcitabine into the tumor, and the amount of gemcitabine was evaluated using the same HPLC analysis method.

[2] = Plasma concentrations of gemcitabine, implantable device on canine pancreas, UV-HPLC; format: in vivo; set-up: key to Gem Concentration (plasma): *: Below limit of detection
Description: The reservoir based system similar to that shown in FIGS. 33A-D was surgically implanted onto the pancreas of a canine. All animal models were anesthetized and attached to a respirator for the entirety of the study. The implantable device approach was assessed via a laparotomy. The pancreas was assessed for ease of access.
There were three arms for the large animal experiment: 1. Device with current; 2. Device without current; and 3. IV Infusion (see Table 2). The device was sutured onto the right lobe of the canine pancreas. Gemcitabine formulated at clinically relevant concentrations was pumped into and out of the device at ˜1.5 mL/min during the application of 10 mA of current applied for 60 minutes. Control experiments were run without current. After administration of therapy, the pancreas was excised and snap frozen for analysis. The gemcitabine was measured from the section tissue using UV-HPLC from established protocols in the literature (see Olive, K P, et al. Science 324 (2009) 1457-1461 and Kirstein M N, et al., J Chromatogr B Analyt Technol Biomed Life Sci. 835 (2006) 136-142). Shown in FIG. 34 are the results obtained from the three experimental arms analyzing the mass of gemcitabine from the entire pancreas.
In FIG. 35, the transport distance of the gemcitabine is shown for the with and without current arms. […] Plasma concentrations of gemcitabine were detected at 15-minute increments prior to and during the large animal study. The tissue was sectioned using a cryostat microtome and gemcitabine was extracted using an established extraction method (see Olive et al.). The gemcitabine was detected and quantified using UV-HPLC (see Olive et al. and Kirstein et al.).

Q: Which “increase in the amount of gemcitabine within tumor compared to the control (no current applied)” value [1] does the source give for `Nc1ccn([C@@H]2O[C@H](CO)[C@@H](O)C2(F)F)c(=O)n1` [Gemcitabine, gemcitabine] here?
A: Its value is “eight-fold increase”.

Q: What about the “Gem Concentration (plasma)” value ([2]; Device - Current Applied (10 mA), sample 0 min) of the same molecule?
A: The value was “*”.

Q: What about the “Gem Concentration (plasma)” value ([2]; Device - Current Applied (10 mA), sample 15 min) of the same molecule?
A: Its value is “*”.

Q: What about the “Gem Concentration (plasma)” value ([2]; Device - Current Applied (10 mA), sample 30 min) of the same molecule?
A: Its value is “*”.

Q: What about the “Gem Concentration (plasma)” value ([2]; Device - Current Applied (10 mA), sample 45 min) of the same molecule?
A: The value was “*”.

Q: What about the “Gem Concentration (plasma)” value ([2]; Device - Current Applied (10 mA), sample 60 min) of the same molecule?
A: Its value is “*”.

Q: What about the “Gem Concentration (plasma)” value ([2]; Device - Current Applied (10 mA), sample −15 min) of the same molecule?
A: Its value is “*”.

Q: And the “Gem Concentration (plasma)” value ([2]; Device - No Current, sample 0 min)?
A: The value was “*”.

Q: What about the “Gem Concentration (plasma)” value ([2]; Device - No Current, sample 15 min) of the same molecule?
A: Its value is “*”.

Q: And the “Gem Concentration (plasma)” value ([2]; Device - No Current, sample 30 min)?
A: Its value is “*”.

Q: What about the “Gem Concentration (plasma)” value ([2]; Device - No Current, sample 45 min) of the same molecule?
A: The value was “*”.

Q: What about the “Gem Concentration (plasma)” value ([2]; Device - No Current, sample 60 min) of the same molecule?
A: Its value is “*”.

Q: What about the “Gem Concentration (plasma)” value ([2]; Device - No Current, sample −15 min) of the same molecule?
A: Its value is “*”.

Q: And the “gemcitabine levels detected in the plasma of the dogs” value ([2]; with and without current arms, device on pancreas)?
A: Its value is “below the detectable limit”.
